For experiment [1], the system named is Thyroid hormone TR (TH). The experiment is described as follows: Binding TR (TH) (ag). Set-up: species or system rat. The protocol:
(§1) Radioligand binding assay methods utilized to measure the activity of compounds of the invention will be familiar to those skilled in the art. In each assay case, the assay components such as, for example, the cell-type, ligand, reference compound and the like, will be familiar to practitioners of such an assay.
(§2) Analysis and Expression of Results: Compounds of the invention were tested in the biochemical assays and percent inhibition of specific binding was determined. The specific ligand binding to the receptors is defined as the difference between the total binding and the nonspecific binding determined in the presence of an excess of unlabelled ligand. The results are expressed as a percent inhibition of control specific binding (100−((measured specific binding/control specific binding)×100)) obtained in the presence of test compounds.

Experiment [2] concerns the target T1, Vasopressin V1a (h) (Homo sapiens, UniProt P37288).
T1 construct: expressed in transfected cells; host or cells: CHO cells
The experiment can be described thus: Binding V1a (h) (ag). The settings on record: read-out: % Inhibition of Control Specific Binding @ 10 μM. On the procedure:
as §1, §2

The test system of experiment [3] is Cl^− channel (GABA-gated). The experiment can be described thus: Binding Cl− channel (GABA-gated) (aa). Set-up: species or system rat. The protocol: as §1, §2
Experiment [4] deals with T2, human androgen receptor (Homo sapiens, UniProt P10275, T878A).
T2 construct: The human androgen receptor was expressed in LNCAP cells; endogenous in cells; host or cells: LNCaP cells (supernatant of homogenate)
T2 sequence (P10275 1-920 T878A): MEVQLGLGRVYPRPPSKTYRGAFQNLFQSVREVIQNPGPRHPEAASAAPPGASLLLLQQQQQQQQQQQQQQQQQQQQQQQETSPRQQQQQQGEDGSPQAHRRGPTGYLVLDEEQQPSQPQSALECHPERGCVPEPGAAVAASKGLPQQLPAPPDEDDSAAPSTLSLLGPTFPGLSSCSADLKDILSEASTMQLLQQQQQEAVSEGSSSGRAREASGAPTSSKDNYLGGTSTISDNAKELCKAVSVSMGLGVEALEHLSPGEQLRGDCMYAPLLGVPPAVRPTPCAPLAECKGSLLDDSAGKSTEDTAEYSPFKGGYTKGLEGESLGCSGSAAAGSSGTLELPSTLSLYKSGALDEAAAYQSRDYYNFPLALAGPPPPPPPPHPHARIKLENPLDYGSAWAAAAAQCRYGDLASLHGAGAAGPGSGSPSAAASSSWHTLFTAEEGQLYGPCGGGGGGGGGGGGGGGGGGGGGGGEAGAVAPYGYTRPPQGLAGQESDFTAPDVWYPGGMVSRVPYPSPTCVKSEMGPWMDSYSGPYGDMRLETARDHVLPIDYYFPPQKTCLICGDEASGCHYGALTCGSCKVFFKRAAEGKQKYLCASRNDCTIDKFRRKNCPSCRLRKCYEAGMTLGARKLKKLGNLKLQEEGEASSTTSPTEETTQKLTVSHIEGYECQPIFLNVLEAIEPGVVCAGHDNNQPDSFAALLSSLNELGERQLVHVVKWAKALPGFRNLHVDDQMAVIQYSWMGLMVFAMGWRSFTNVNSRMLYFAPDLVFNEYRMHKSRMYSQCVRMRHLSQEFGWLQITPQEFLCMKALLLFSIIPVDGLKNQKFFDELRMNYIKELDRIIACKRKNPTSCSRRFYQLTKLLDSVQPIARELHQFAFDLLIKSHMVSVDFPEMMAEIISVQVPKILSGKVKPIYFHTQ
The experiment can be described thus: Human Androgen Receptor (AR) Binding. As to conditions: AR Binding Activity Ki (μM). On the procedure: Tissue Preparation: The human androgen receptor was expressed in LNCAP cells which were cultured and harvested by trypsinization from T-175 flasks. The frozen pellet was thawed and resuspended by sonication, then diluted to the appropriate concentration. The homogenate was centrifuged @ 48,000 g for 10 min at 4° C. The supernatant was used. The protein was determined. The tissue was diluted to 0.325 mg/mL with assay buffer so that each tube received 65 μg of protein, or the final assay concentration was 0.260 mg/mL.
Buffers: 25 mM HEPES pH7.4; 1.0 mM EDTA; 10 mM sodium molybdate; 10% Glycerol; 0.5 mM PFSM (dissolved PMSF in EtOH first, before adding to remaining buffer).
Binding Reaction: (Liao, et al. “The Use of a Hydroxylapatite-Filter Steroid Receptor Assay Method in the Study of the Modulation of Androgen Receptor Interaction.” J. Steroid Biochem. (1984), 20:11-17 (with modifications)). […] The binding reaction was initiated with the addition of tissue, and was incubated at 0-4° C. (in refrigerator) for 18-22 h (overnight). The binding reaction was terminated by rapid filtration of the tube contents onto 0.1% PEI treated GF/B filters. The assay tubes were rinsed once with ice-cold […] HEPES, then rapidly rinsed with 6×1 mL/tube of the same wash buffer. Radioactivity trapped on the filters was assessed using liquid scintillation spectrophotometry after soaking the filers for at least 1 h in scintillation cocktail. […] Specific binding was calculated from the difference between the total and non-specific binding. IC50 values were determined by plotting specific binding as a function of test-compound concentration.

[5] abbreviates: Reference Compound Methyltrienolone.
The mark [6] stands for this setting: first column, Reference Compound Mibolerone.
Setting [7] is: second column, Reference Compound Mibolerone.

Structures are written as SMILES. Where only a bound is given, the exact number is not on record here.

T1 sequence (P37288 whole entry): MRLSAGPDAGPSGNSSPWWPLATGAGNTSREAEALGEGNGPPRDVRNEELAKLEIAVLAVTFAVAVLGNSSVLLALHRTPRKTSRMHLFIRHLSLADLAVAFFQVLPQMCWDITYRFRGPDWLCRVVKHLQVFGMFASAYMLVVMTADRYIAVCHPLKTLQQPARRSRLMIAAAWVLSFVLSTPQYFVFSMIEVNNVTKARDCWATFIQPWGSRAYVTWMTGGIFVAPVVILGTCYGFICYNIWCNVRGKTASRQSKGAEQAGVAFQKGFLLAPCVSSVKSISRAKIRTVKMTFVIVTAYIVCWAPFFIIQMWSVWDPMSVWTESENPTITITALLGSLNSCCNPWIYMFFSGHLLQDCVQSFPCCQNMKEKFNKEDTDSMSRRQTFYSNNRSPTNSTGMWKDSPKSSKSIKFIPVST

For `CC1(C)C(=O)N(c2ccc(C#N)c(C(F)(F)F)c2)C(=S)N1c1ccc(C(=O)O)c(F)c1` [(MI), 4-(3-(4-cyano-3-(trifluoromethyl)phenyl)-5,5-dimethyl-4-oxo-2-thioxoimidazolidin-1-yl)-2-fluorobenzoic acid], the figures for the “% Inhibition of Control Specific Binding @ 10 μM” value (“% Inhibition” below) in experiment [1] and in experiment [3] were −7% and 47%, respectively. Further, the inhibition at 10 µM in experiment [2] came to 2%. The inhibitory constant (Ki) in experiment [4] (setting [5]) was above 10 µM.
Turning to `CC1(C)C(=O)N(c2ccc(C#N)c(C(F)(F)F)c2)C(=S)N1c1ccc(C(N)=O)c(F)c1` [(MII), 4-(3-(4-Cyano-3-(trifluoromethyl)phenyl)-5,5-dimethyl-4-oxo-2-thioxoimidazolidin-1-yl)-2-fluorobenzamide], the “% Inhibition” value was determined as 0% in experiment [1] and 81% in experiment [3]. In addition, the inhibition at 10 µM in experiment [2] was 15%. The Ki in experiment [4] (setting [6]) came to 0.074 µM; in experiment [4] (setting [7]), 0.051 µM; in experiment [4] (setting [5]) it was 0.059 µM.
For the molecule `CC1(C)C(=O)N(c2ccc(C#N)c(C(F)(F)F)c2)C(=O)N1c1ccc(C(N)=O)c(F)c1` [(MIII), 4-(3-(4-cyano-3-(trifluoromethyl)phenyl)-5,5-dimethyl-2,4-dioxoimidazolidin-1-yl)-2-fluorobenzamide], the “% Inhibition” value in experiment [1] is −9%; in experiment [3], 38%. For the same molecule, in experiment [2], the inhibition at 10 µM is -1%. The Ki was found to be 0.83 µM in experiment [4] (setting [6]), 1.5 µM in experiment [4] (setting [7]) and 0.314 µM in experiment [4] (setting [5]).
With `CNC(=O)c1ccc(N2C(=O)N(c3ccc(C#N)c(C(F)(F)F)c3)C(=O)C2(C)C)cc1F` [(MIV), 4-(3-(4-cyano-3-(trifluoromethyl)phenyl)-5,5-dimethyl-2,4-dioxoimidazolidin-1-yl)-2-fluoro-N-methylbenzamide], the “% Inhibition” value in experiment [1] is −2%; in experiment [3] it was 36%. Moreover, the inhibition at 10 µM in experiment [2] was -8%. Further, the Ki is 0.69 µM in experiment [4] (setting [6]), 0.97 µM in experiment [4] (setting [7]) and 0.361 µM in experiment [4] (setting [5]).

As a reminder, the inhibition is the relative decrease from the control value, in per cent. As usually defined, the Ki is the equilibrium dissociation constant of an inhibitor or competing ligand from its target. Read a low Ki as tighter binding.

The values are drawn from patent publication US8524755B2 (priority 2009, dated 2013).
